Data from US20040248775A1, “Methods for screening inhibitors of apoptosis” (Wyeth, priority 2003, published 2004).

Molecular target: T1, His6-NALP1 wild-type (Homo sapiens, UniProt Q9C000)
T1 construct: made in house; host or cells: COS-7 cells, transient transfection, Ni-NTA purification
T1 sequence (Q9C000 1-1473): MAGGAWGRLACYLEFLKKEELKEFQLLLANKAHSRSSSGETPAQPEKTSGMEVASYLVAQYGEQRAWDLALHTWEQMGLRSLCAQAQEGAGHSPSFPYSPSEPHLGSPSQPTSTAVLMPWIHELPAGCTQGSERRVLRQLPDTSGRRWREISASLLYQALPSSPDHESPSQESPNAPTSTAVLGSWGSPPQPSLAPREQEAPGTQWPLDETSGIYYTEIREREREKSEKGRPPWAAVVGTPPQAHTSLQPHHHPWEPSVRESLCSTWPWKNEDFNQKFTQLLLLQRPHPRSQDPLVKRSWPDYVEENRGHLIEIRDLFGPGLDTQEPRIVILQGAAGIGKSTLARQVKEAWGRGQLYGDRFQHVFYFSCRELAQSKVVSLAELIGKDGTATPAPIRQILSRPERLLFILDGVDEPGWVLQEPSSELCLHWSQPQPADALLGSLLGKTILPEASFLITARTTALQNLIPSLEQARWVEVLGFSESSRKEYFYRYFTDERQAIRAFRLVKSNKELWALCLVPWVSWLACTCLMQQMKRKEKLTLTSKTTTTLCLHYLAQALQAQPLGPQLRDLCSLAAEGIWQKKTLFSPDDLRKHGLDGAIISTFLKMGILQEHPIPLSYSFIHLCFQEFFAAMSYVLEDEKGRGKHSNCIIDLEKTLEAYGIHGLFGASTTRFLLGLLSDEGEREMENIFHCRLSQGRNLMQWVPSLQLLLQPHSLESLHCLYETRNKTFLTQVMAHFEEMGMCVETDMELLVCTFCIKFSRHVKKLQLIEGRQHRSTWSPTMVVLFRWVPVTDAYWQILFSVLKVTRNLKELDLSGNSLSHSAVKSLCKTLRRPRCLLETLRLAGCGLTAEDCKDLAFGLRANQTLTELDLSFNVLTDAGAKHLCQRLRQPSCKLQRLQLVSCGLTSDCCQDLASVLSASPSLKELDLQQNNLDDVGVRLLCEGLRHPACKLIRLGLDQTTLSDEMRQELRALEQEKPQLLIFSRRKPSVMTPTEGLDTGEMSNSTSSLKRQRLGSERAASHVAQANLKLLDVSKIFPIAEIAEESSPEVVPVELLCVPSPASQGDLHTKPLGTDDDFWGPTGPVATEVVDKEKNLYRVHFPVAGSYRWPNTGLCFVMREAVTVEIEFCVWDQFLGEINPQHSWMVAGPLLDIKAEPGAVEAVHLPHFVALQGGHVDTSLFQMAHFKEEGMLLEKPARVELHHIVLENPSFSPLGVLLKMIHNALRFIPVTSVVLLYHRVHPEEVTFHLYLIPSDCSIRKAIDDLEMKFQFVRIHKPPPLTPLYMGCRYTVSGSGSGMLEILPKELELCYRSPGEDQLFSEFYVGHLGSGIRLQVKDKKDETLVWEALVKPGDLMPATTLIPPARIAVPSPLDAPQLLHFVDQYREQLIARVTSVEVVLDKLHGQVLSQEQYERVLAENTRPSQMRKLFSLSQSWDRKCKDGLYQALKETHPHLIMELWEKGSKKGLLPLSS
Test: Ni flashplate dATPα35S binding assay, wild-type His6-NALP1
Conditions: 8 nM dATPα35S displaced by non-radiolabeled dATP
Description: Production of purified NALP-Flashplate binding assay. NALP1 protein for in vitro binding assays was purified from transiently transfected cells. COS-7 cells were plated in DMEM, 10% fetal calf serum with amino acid supplements and antibiotics and allowed to grow to approximately 50% confluency. Large-scale preparations were performed in Cell Factories (NUNC) with approximately 600 μg plasmid DNA. Polyfect transfection reagent (Qiagen) was used as described by the manufacturer. After 24 hours, cells were collected by trypsinization, washed with fresh medium and then with PBS. Cells were lysed by resuspension in 10× cell volume of lysis buffer (140 mM NaCl, 0.1% Triton-X100, 0.1 mM DTT, 20 mM HEPES at pH 7.4 and protease inhibitor cocktail (Roche Diagnostics BmbH)). Lysates were centrifuged at approximately 7400×g for 30 minutes and supernatants were supplemented with glycerol to a final concentration of 10% and stored at −70° C. until purification. Protein concentrations were measured and samples normalized. Extracts were mixed with 1 ml Ni-NTA agarose equilibrated with the same buffer for 1 hour at 4° C. in the tube. Disposable columns were filled with the resin and flow-through collected. […] Reactions were stopped by aspirating solutions and washed once with Buffer B. Plates were counted in a Top Count scintillation counter (Packard).

Nc1ncnc2c1ncn2[C@H]1C[C@H](O)[C@@H](COP(=O)(O)OP(=O)(O)OP(=O)(O)O)O1 [dATP]
specific binding of dATP to wild-type NALP1: specific binding
